{"source": "patent US20180371021A1", "about": "“PEPTIDOMIMETIC MACROCYCLES AND USES THEREOF” (Aileron Therapeutics, Inc., priority 2017, published 2018)", "key": {"MIC-1": {"test_system": "MIC-1", "assay": "Phase 1 dose-escalation trial of AP1: plasma MIC-1 biomarker", "assay_type": "in vivo, human", "conditions": "plasma MIC-1 after end of AP1 infusion", "quoted_text": "Depending on the sample type, the PD biomarkers included measures of MDMX, MDM2, p21, p53, apoptosis, macrophage inhibitory cytokine 1, or MIC-1.\nIn the Phase 1 dose-escalation study, plasma MIC-1 levels were measured at several time points after initial infusion."}, "[1]": {"assay": "Phase 1 dose-escalation trial of AP1: pharmacokinetic profile", "assay_type": "in vivo, human", "conditions": "patients, I.V. infusion", "description": "Data were collected at different time points after the start of infusion (SOI) and the end of infusion (EOI)."}, "MCF-7 cells": {"test_system": "MCF-7 cells", "assay": "MCF-7 cell proliferation (WST-1 / CyQUANT), AP1 and CDK4/CDK6 inhibitors", "assay_type": "cell-based, human", "conditions": "sequential treatment, 24 h pre-treatment", "quoted_text": "The WST-1 variant of the MTT assay was used to measure cell viability. WST-1 is a cell-impermeable, sulfonated tetrazolium salt that can be used to examine cell viability without killing the cells. […] All media were supplemented with 10% (v/v) fetal calf serum, 100 units of penicillin, and 100 μg/mL of streptomycin at 37° C. and 5% CO2. Prior to dosing, MCF-7 cells were switched to serum-free medium and grown at 37° C. overnight. One day prior to assaying, the cells were trypsinized, counted, and seeded at pre-determined densities in 96-well plates as follows: MCF-7, 5000 cells/well/200 μL; MOLT-3, 30,000 cells/well/200 μL.\nThe concentration of ribociclib was kept constant.\nThe concentration of abemaciclib was kept constant.\nVarious MCF-7 cell numbers were plated and evaluated 3-7 days after plating to determine the optimal number of cells to be plated and to determine the treatment duration. […] MCF-7 cells were evaluated for viability using the WST-1 assay or the CyQUANT method 3-7 days or 120 h after beginning treatment.\nThe cells were evaluated for viability using the CyQUANT method after beginning the simultaneous treatments.\nThe cells were evaluated for viability using a WST-1 assay or MTT assay 3-7 days after beginning the treatments.\nThe data are expressed as log(CI)."}, "[2]": {"test_system": "MCF-7.1 human breast carcinoma xenograft", "assay": "MCF-7.1 human breast carcinoma xenograft model, AP1 and palbociclib", "assay_type": "in vivo, mice", "conditions": "AP1 20 mg/kg qwkx4, palbociclib 75 mg/kg qdx22", "description": "Female athymic nude mice were provided with drinking water with 10 μg/mL with 17 beta estradiol supplementation 3 days prior to cell implantation and for the duration of the study. […] The mice were between 8-12 weeks of age at the beginning of the study. […] The group was not euthanized, and the mice were allowed to recover. […] Animals were monitored individually. […] Responders were followed for a longer period of time. When the endpoint was reached, the animals were euthanized. […] An aqueous phosphate-buffered saline solution or sodium lactate (50 mM, pH 4.0) solution was used as the vehicle."}, "[3]": {"test_system": "advanced solid tumors or lymphomas expressing WT p53", "assay": "Phase 1 dose-escalation trial of AP1: anti-tumor activity (RECIST / IWG)", "assay_type": "in vivo, human", "description": "Anti-tumor activity was measured using Response Evaluation Criteria in Solid Tumors (RECIST) criteria for patients with solid tumors, and 2015 International Working Group (IWG) criteria for patients with lymphomas. The RECIST and IWG criteria enabled the objective evaluation of whether a tumor had progressed, stabilized, or decreased in size. Anti-tumor effects were also determined through physical examinations or clinically validated blood or serum tumor markers.\nAnti-tumor activity was measured using RECIST criteria for patients with solid tumors and the IWG criteria for patients with lymphomas to objectively evaluate whether a tumor progressed, stabilized, or shrunk.\nThe percent change in tumor volume for each evaluable patient (i.e., having measurable disease by CT or PET-CT scan) is plotted from the highest to lowest value, or low to high response, and each bar of the histogram is colored by the best overall response measured for that patient per RECIST or IWG criteria."}, "[4]": {"test_system": "peripheral T-Cell Lymphoma (PTCL)", "assay": "Phase 2a clinical trial with AP1 in peripheral T-cell lymphoma", "assay_type": "in vivo, human", "description": "Based on the results of the dose-escalation study and the complete response observed in a patient with PTCL, a Phase 2a clinical trial was conducted in patients with PTCL."}, "A549 xenograft": {"test_system": "A549 xenograft", "assay": "A549 xenograft model, AP1 and palbociclib", "assay_type": "in vivo, mice", "description": "The arrows indicate spontaneous tumor shrinkage in vehicle controls. The arrows with * indicate poor growth of tumors late in the study."}, "[5]": {"test_system": "SJSA-1 osteosarcoma xenograft", "assay": "SJSA-1 osteosarcoma xenograft model, AP1 and palbociclib", "assay_type": "in vivo, mice", "conditions": "AP1 20 mg/kg qwkx4, palbociclib 75 mg/kg qdx22", "description": "The group was not euthanized, and the mice were allowed to recover. […] Animals were monitored individually. […] Responders were followed for a longer period of time. When the endpoint was reached, the animals were euthanized. […] An aqueous phosphate-buffered saline solution or sodium lactate (50 mM, pH 4.0) solution was used as the vehicle."}, "[6]": {"test_system": "human CD45 leukemic cells", "assay": "Survival in an in vivo xenotransplantation model", "set-up": "species or system mice", "conditions": "for Long term survival, mice still alive: 130 days post start of treatment", "description": "The median survival for group 1 and group 2 was 34 days and 83 days, respectively (p<0.0001)."}, "[7]": {"test_system": "Acute Myeloid Leukemia (AML) or Myelodysplastic Syndrome (MDS), expressing WT p53", "assay": "Clinical study of AP1 alone or with cytarabine in AML or MDS", "assay_type": "in vivo, human", "conditions": "evaluable patients with bone marrow biopsies before and after dosing"}, "[8]": {"assay": "Phase 1 dose-escalation trial of AP1: safety and tolerability", "assay_type": "in vivo, human", "description": "71 patients were enrolled in the dose-escalation trial. The trial used a “3+3” dose-escalation design.\nStarting with dose level 4, patients who had cancers associated with HPV were excluded from enrollment because HPV is known to destroy WT p53.\nFIG. 2 illustrates the dosing regiments (DRs) used in the “3+3” dose escalation trial.\nEight patients experienced dose reductions, including two patients who had been on study treatment for over 1 year, and another patient who had been on study treatment for 11 months. […] Both events were Grade 3 hypotension and were at the 3.1 mg/kg and the 4.4 mg/kg once-weekly dosing levels. […] Five patients discontinued treatment with AP1 due to these events."}, "[9]": {"conditions": "d22, calculated using vehicle median volumes on d0 and d22"}, "[10]": {"conditions": "three consecutive measurements > 150% of d1 volume"}}, "note": "“And” between values parts separate entries of the source, which are not always exact repeats. Equal values may be shown once. “Also recorded” adds a separate entry of the source.", "data": [{"smiles": "CC(=O)N[C@@H](CC(C)C)C(=O)N[C@H](C(=O)N[C@@H](Cc1ccccc1)C(=O)N[C@]1(C)CCCCCCC=CCCC[C@@](C)(C(=O)N[C@@H](C)C(=O)N[C@@H](C)C(=O)N[C@@H](C)C(=O)N[C@@H](C)C(=O)N[C@@H](C)C(=O)N[C@H](C)C(N)=O)NC(=O)[C@H](CC(C)C)NC(=O)[C@H](CCC(N)=O)NC(=O)[C@H](C)NC(=O)[C@H](Cc2c[nH]c3ccccc23)NC(=O)[C@H](Cc2ccc(O)cc2)NC(=O)[C@H](CCC(=O)O)NC1=O)[C@@H](C)O", "note": "[AP1]", "values": [{"measurement": "doses achieving a maximal 24 hr MIC-1 increase above baseline", "setting": "MIC-1", "result": "≥ 2.1", "unit": "mg/kg"}, {"measurement": "maximum drug serum concentrations observed (Cmax)", "setting": "[1]; all dose levels", "result": "dose-related increase"}, {"measurement": "half-lives", "setting": "[1]; higher dose levels", "result": "five and seven"}, {"measurement": "MCF-7 cell growth", "setting": "MCF-7 cells", "result": "suppressed MCF-7 cell growth with or without treatment with palbociclib"}, {"measurement": "Median tumor volume (mm^3) D1", "setting": "[2]; D1 (start of dosing), MCF-7.1 xenograft, nude mice", "result": 126, "unit": "mm^3"}, {"measurement": "Median tumor volume (mm^3) D22", "setting": "[2]; D22, MCF-7.1 xenograft, nude mice", "result": 473, "unit": "mm^3"}, {"measurement": "Median time to tumor volume > 500 mm^3", "setting": "[2]; MCF-7.1 xenograft", "result": 22, "unit": "days"}, {"measurement": "Median time to tumor volume > 1000 mm^3", "setting": "[2]; MCF-7.1 xenograft", "result": 35, "unit": "days"}, {"measurement": "% TGI (±SEM) on d22 (end of dosing)", "setting": "[2]; [9]", "result": "30 (9) %"}, {"measurement": "animals have reached endpoint", "setting": "[2]; endpoint tumor volume > 1000 mm^3, MCF-7.1 xenograft", "result": "10/10 animals"}, {"measurement": "Animals with disease progression", "setting": "[2]; [10]", "result": "10/10"}, {"measurement": "responses with stabilization of tumor size (SDs)", "setting": "[3]; 57 evaluable patients", "result": 21}, {"measurement": "stable diseased patients that exhibited tumor shrinkage", "setting": "[3]; 57 evaluable patients", "result": 7}, {"measurement": "patient scans of the two CR patients", "setting": "[3]; PTCL patient after six cycles, MCC patient after further treatment", "result": "the lymph node returned to its normal size; also recorded: showed no trace of cancer in the patient"}, {"measurement": "max time a patient received AP1", "setting": "[3]; one patient", "result": 613, "unit": "days"}, {"measurement": "response of the first patient enrolled in the Phase 2 study in PTCL", "setting": "[4]; after 2 cycles of treatment", "result": "partial response"}, {"measurement": "Best overall response", "setting": "[4]; seven PTCL patients on AP1 therapy, one line per patient (patient 1 from dose escalation)", "result": "ODP"}, {"measurement": "Days on treatment", "setting": "[4]; seven PTCL patients on AP1 therapy, one line per patient (patient 1 from dose escalation), Dose escalation study", "result": 487, "unit": "days"}, {"measurement": "Days on treatment", "setting": "[4]; seven PTCL patients on AP1 therapy, one line per patient (patient 1 from dose escalation), Phase 2a study", "result": "32 days and 1 days and 122 days and 134 days and 66 days and 53 days"}, {"measurement": "Median time to tumor volume > 500 mm^3", "setting": "A549 xenograft; A549 xenograft, AP1 20 mg/kg qwkx4", "result": 25, "unit": "days"}, {"measurement": "Median tumor volume (mm^3) D1", "setting": "A549 xenograft; D1 (start of dosing), A549 xenograft, nude mice, AP1 20 mg/kg qwkx4, palbociclib 75 mg/kg qdx22", "result": 126, "unit": "mm^3"}, {"measurement": "Median tumor volume (mm^3) D22", "setting": "A549 xenograft; D22, A549 xenograft, nude mice, AP1 20 mg/kg qwkx4, palbociclib 75 mg/kg qdx22", "result": 405, "unit": "mm^3"}, {"measurement": "% TGI (±SEM) on d22 (end of dosing)", "setting": "A549 xenograft; d22, calculated using vehicle median volumes on d0 and d22, AP1 20 mg/kg qwkx4, palbociclib 75 mg/kg qdx22", "result": "42 (7) %"}, {"measurement": "Animals with disease progression", "setting": "A549 xenograft; three consecutive measurements > 150% of d1 volume, AP1 20 mg/kg qwkx4, palbociclib 75 mg/kg qdx22", "result": "10/10"}, {"measurement": "animals have reached endpoint", "setting": "A549 xenograft; tumor volume > 500 mm^3, A549 xenograft, AP1 20 mg/kg qwkx4, palbociclib 75 mg/kg qdx22", "result": "8/10 animals"}, {"measurement": "Median tumor volume (mm^3) D1", "setting": "[5]; D1 (start of dosing), SJSA-1 xenograft, nude mice", "result": 117, "unit": "mm^3"}, {"measurement": "Median tumor volume (mm^3) D22", "setting": "[5]; D22, SJSA-1 xenograft, nude mice", "result": 2150, "unit": "mm^3"}, {"measurement": "Median time to tumor volume > 1000 mm^3", "setting": "[5]; SJSA-1 xenograft", "result": 16, "unit": "days"}, {"measurement": "Median time to tumor volume > 2000 mm^3", "setting": "[5]; SJSA-1 xenograft", "result": 21, "unit": "days"}, {"measurement": "% TGI (±SEM) on d22 (end of dosing)", "setting": "[5]; [9]", "result": "17 (6) %"}, {"measurement": "Animals with disease progression", "setting": "[5]; [10]", "result": "10/10"}, {"measurement": "Long term survival, mice still alive", "setting": "[6]; group 2", "result": 22, "unit": "%"}, {"measurement": "Long term survival, mice still alive", "setting": "[6]; group 3", "result": 60, "unit": "%"}, {"measurement": "median survival", "setting": "[6]; group 2 (group 1: 34 days), p<0.0001", "result": 83, "unit": "days"}, {"measurement": "overall survival", "setting": "[6]; vs vehicle", "result": "doubled the overall survival"}, {"measurement": "patients who demonstrated stabilization of their disease", "setting": "[7]", "result": 3}, {"measurement": "dose limiting toxicity (DLT)", "setting": "[8]; 3.1 mg/kg once weekly dosing", "result": "One dose limiting toxicity (DLT) of Grade 3 fatigue"}, {"measurement": "dose limiting toxicity (DLT)", "setting": "[8]; […] once weekly", "result": "four DLTs (Grade 3 elevated alkaline phosphatase, Grade 3 hypotension, Grade 3 anemia, Grade 4 neutropenia)"}, {"measurement": "patients with transient decreases in lymphocytes post-dosing and primarily Grade 1 and 2 abnormalities", "setting": "[8]; full recovery within a few days", "result": "approximately 50%"}, {"measurement": "MTD", "setting": "[8]; human, in vivo, iv, dosed once a week by I.V. administration, patients", "result": 3.1, "unit": "mg/kg"}, {"measurement": "tolerability as considered by the investigators", "setting": "[8]; patients, dose escalation trial", "result": "generally well tolerated"}, {"measurement": "most frequently reported drug-related events", "setting": "[8]; reported by ≥10% of the patients", "result": "nausea, fatigue, vomiting, decreased appetite, anemia, headache, and constipation"}]}]}
